Laboratory results: patent publication US8044042B2, “Thienotriazolodiazepine compound and medicinal use thereof” (Mitsubishi Tanabe Pharma Corporation, priority 2005, dated 2011)
pIC50: −log10 of the molar value. Where two headings read alike, the source gives them in different places.

Assays:
[1] = system: CD28-dependent T cell growth; assay: Mouse T cell proliferation stimulated with anti-CD28 antibody and PMA (tritiumthymidine uptake); type: cell-based; details: for pIC50: BALB/c mouse T cells, 10 ng/mL PMA and 250 ng/mL anti-CD28 antibody, tritiumthymidine uptake, read-out: CD28-dependent T cell growth suppressive action (IC50); for CD28-dependent T cell growth suppressive action (in words): mouse T cells stimulated with PMA and anti-CD28 antibody
Method: The spleen was aseptically isolated from 6-7-week-old male BALB/c mice (CHARLES RIVER LABORATORIES JAPAN, INC.), and splenocyte suspension was prepared using RPMI1640 medium (manufactured by Sigma-Aldrich Ltd.). After hemolysis by a hypotonic treatment using a mixed solution of 0.83% aqueous ammonium chloride and Tris-HCl buffer (pH 7.65) at 9:1, a T cell concentrated fraction was obtained using a T cell concentrated column (manufactured by R&D systems). A cell suspension prepared using RPMI1640 medium containing 10% fetal calf serum (FCS, manufactured by Sigma-Aldrich Ltd.) was added to a flat-bottomed 96 well microtest plate (manufactured by Becton, Dickinson and Company) at 5×10^5 cells/well. Furthermore, a test compound diluted with a medium to the final concentration of 1-10000 nmol/L, 10 ng/mL PMA (manufactured by Sigma-Aldrich Ltd.) and 250 ng/mL anti-CD28 antibody (manufactured by BD pharmingen) were added, and the mixture was cultured under the conditions of 37° C., 5% carbon dioxide, 95% air for 20 hr. After the completion of culture, tritiumthymidine (specific activity: […], manufactured by MP Biochemicals) was added at 18.5 kBq/well, and the mixture was further cultured for 4 hr. Then, the cells were recovered in a glass fiber filter using a cell harvester (manufactured by Molecular Devices Corp.), the radioactivity taken into the cells was measured using a plate scintillation counter (microbeta 1460, manufactured by PerkinElmer), based on which the mouse T cell growth induced by stimulation with PMA and anti-CD28 antibody was measured. To be specific, suppressing rate (%)=(1−(radioactivity (cpm) of well added with test compound)/(radioactivity (cpm) of well without addition of test compound))×100 was calculated from the average amount of tritiumthymidine uptake (cpm) of T cells in each well added with various concentrations of test compound. In addition, based on the dose response curve obtained by plotting the average tritiumthymidine uptake amount (cpm) or suppressing rate on the vertical axis and the concentration on the transverse axis, the concentration of the compound (IC50) suppressing the value to 50% of that of the control group was determined by nonlinear regression.

[2] = system: TYPE II Collagen-Induced Arthritis in DBA/1J Mouse; assay: Type II collagen-induced arthritis in DBA/1J mouse; type: in vivo; details: 840 h; for inhibition in vivo at 10 mg/kg: po, read-out: suppressing rate (%) of arthritis score; for inhibition in vivo at 3 mg/kg: 3 mg/kg oral, 2 weeks from booster, average arthritis score at 35 days after primary immunization, P <0.05, read-out: suppressing rate (%) of arthritis score
Method: Bovine Type II collagen (purchased from collagen technical workshop) (100-200 μg) was mixed with complete Freund's adjuvant (manufactured by Sigma-Aldrich Ltd.) containing killed tuberculosis H37Ra. Using the resulting emulsion, 6 to 7-week-old male DBA/1J mice (CHARLES RIVER LABORATORIES JAPAN, INC.) were subcutaneously immunized at the tail root twice at 3 week intervals, whereby arthritis was developed. A test compound was suspended or dissolved in 0.5% carboxymethylcellulose (manufactured by Sigma-Aldrich Ltd.), and repetitively administered orally at a dose of 0.1-30 mg/kg body weight using an oral gavage needle for 2 weeks from the day of booster. As to this model, the symptoms of arthritis of four limbs were evaluated based on the following judgment criteria using the scores of from 0 to 4. The arthritis score of each mouse was shown by the total of the scores of four limbs (maximum: 16 points).
As regards the arthritis score, each group (n=5-6) was evaluated using an average value and mean error, with a group administered only with a vehicle being control, and Mann-Whitney U test was used for statistical analysis, wherein p value of 0.05 or below was determined to be significant. In the following, the suppressive action of the compound of the present invention on mouse collagen induced arthritis is shown by the suppressing rate (%) (1−(average arthritis score of compound administration group)/(average arthritis score of control group)×100) calculated from the average arthritis score at 35 days after the primary immunization.

[3] = system: Experimental Autoimmune Encephalomyelitis in SJL/J Mouse; assay: Experimental autoimmune encephalomyelitis in SJL/J mouse; type: in vivo; details: 3 weeks from immunization, average EAE score at 14 days after immunization, P <0.05
Method: The 139th-151st peptides (50 μg) of rat-derived proteolipid protein (manufactured by Bachem) was mixed with complete Freund's adjuvant containing killed tuberculosis H37Ra. Using the resulting emulsion, 10-week-old female SJL/J mice (CHARLES RIVER LABORATORIES JAPAN, INC.) were subcutaneously immunized on the back, whereby experimental autoimmune encephalomyelitis (EAE) was developed. The compound of the present invention or a pharmaceutically acceptable salt thereof was suspended or dissolved in 0.5% carboxymethylcellulose (manufactured by Sigma-Aldrich Ltd.), and repetitively administered orally at a dose of 3-30 mg/kg body weight using an oral gavage needle for 3 weeks from the day of immunization. As to this model, the symptoms of EAE were evaluated based on the following judgment criteria using the scores of from 0 to 5.
As regards the EAE score, each group (n=10) was evaluated using an average value and mean error, with a group administered only with a vehicle being control, and Mann-Whitney U test was used for statistical analysis, wherein p value of 0.05 or below was determined to be significant. In the following, the suppressive action of the compound of the present invention on EAE is shown by the suppressing rate (%) calculated from the average EAE score at 14 days after the immunization. […] From the results, the compound is considered effective for encephalomyelitis, multiple sclerosis and the like.

[4] = system: Biphasic Auricular Edema in Egg Albumin-Induced Mouse; assay: Egg albumin-induced mouse biphasic auricular edema; type: in vivo; details: for suppressing rate (%) of auricular edema: 24 hr later, P <0.05; for suppressive action on edema (in words): 24 hr after induction with egg albumin
Method: Using saline (0.5 ml) containing egg albumin (10 μg, manufactured by Sigma-Aldrich Ltd.) and 1 mg of aluminum hydroxide gel, 6 to 7-week-old male BALB/c mice (CHARLES RIVER LABORATORIES JAPAN, INC.) were intraperitoneally immunized. Two weeks later, egg albumin (1.25 μg) was intradermally injected into the auricle of the mice for challenge, whereby biphasic auricular edema was induced 1 hr and 24 hr after the challenge. The compound of the present invention or a pharmaceutically acceptable salt thereof was suspended or dissolved in 0.5% carboxymethylcellulose, and repetitively administered orally at a dose of 0.01-30 mg/kg body weight for 3 days, from 2 days before the antigen challenge to the day of challenge, using an oral gavage needle. As for this model, the thickness of the auricle of the mouse was measured using a dial gauge (manufactured by Ozaki MFG. Co. Ltd.) and used as an index of auricular edema. As regards the thickness of the auricle, each group (n=8) was evaluated using an average value and mean error, with a group administered only with a vehicle being control, and t-test was used for statistical analysis, wherein p value of 0.05 or below was determined to be significant.

[5] = system: Mouse Graft-Versus-Host Reaction (GvHR); assay: Mouse graft-versus-host reaction (GvHR); type: in vivo; details: P <0.05 vs vehicle
Method: Cyclophosphamide (manufactured by Shionogi & Co., Ltd.) is administered to male BDF1 recipient mouse (8-week-old, CHARLES RIVER LABORATORIES JAPAN, INC.) at a dose of 300 mg/kg from the tail vein as a pretreatment at 24 hr prior to injection of spleen cells. The spleen was aseptically isolated from male C57BL/6 donor mouse (8-week-old, CHARLES RIVER LABORATORIES JAPAN, INC.), minced in RPMI1640 medium (manufactured by Sigma-Aldrich Ltd.), and passed through a stainless mesh to give a splenocyte single cell suspension. After removal of red blood cells by a hypotonic treatment using a mixed solution of 0.83% aqueous ammonium chloride and Tris-HCl buffer (pH 7.65) at 9:1, splenocytes were washed and suspended in physiological saline to give a splenocyte suspension. The prepared cells were injected at 1×10^8 cells/mouse into the tail vein to induce acute GvHR. The compound of the present invention or a pharmaceutically acceptable salt thereof was suspended or dissolved in 0.5% carboxymethylcellulose, and repetitively administered orally at a dose of 3-30 mg/kg body weight for 28 days from the day of splenocyte injection, and the influence on the survival time was evaluated. After induction of acute GvHR, the survival of each individual was determined every day, and the day of confirmed death was taken as the survival time of each individual. As for the survival time, log-rank test analysis was performed using the group administered with vehicle alone as a control, and the multiplicity was adjusted by the Holm's method, wherein p value of 0.05 or below was determined to be significant.

Row | Structure (SMILES) | pIC50 ([1]; T-cell) | CD28-dependent T cell growth suppressive action (in words) [1] | inhibition in vivo at 3 mg/kg [2] | also measured
1 | Cc1sc2c(c1C)C(c1ccc(-c3cccc(C#N)c3)cc1)=NCc1nnc(C)n1-2 [Example 253, 4-(3′-cyanobiphenyl-4-yl)-2,3,9-trimethyl-6H-thieno[3,2-f][1,2,4]triazolo[4,3-a][1,4]diazepin] | 7.00 | have a CD28-dependent T cell growth suppressive action | – | inhibition in vivo at 10 mg/kg [2]: 46.4%
2 | Cc1sc2c(c1C)C(c1ccc(NCc3ccccc3)cc1)=NCc1nnc(C)n1-2 [Example 335, 4-(4-benzylaminophenyl)-2,3,9-trimethyl-6H-thieno[3,2-f][1,2,4]triazolo[4,3-a][1,4]diazepine] | 6.72 | have a CD28-dependent T cell growth suppressive action | – | inhibition in vivo at 10 mg/kg [2]: 65.5%; suppressing rate (%) of EAE score ([3]; 30 mg/kg oral): 53%; suppressing rate (%) of auricular edema ([4]; 10 mg/kg oral for 3 days): 45.1%; suppressive action on edema (in words) ([4]; 10 mg/kg): significant suppressive action on edema; median survival time ([5]; 30 mg/kg oral for 28 days from splenocyte injection): 36.5 days
3 | CCOC(=O)C[C@@H]1N=C(c2ccc(NCc3ccc(F)cc3)cc2)c2c(sc(C)c2C)-n2c(C)nnc21 [Example 163, Ethyl (S)-(4-{4-[(4-fluorophenyl)methylamino]phenyl}-2,3,9-trimethyl-6H-thieno[3,2-f][1,2,4]triazolo[4,3-a][1,4]diazepin-6-yl)acetate] | 7.15 | have a CD28-dependent T cell growth suppressive action | 57.4% | suppressing rate (%) of EAE score ([3]; 30 mg/kg oral): 60%; suppressing rate (%) of auricular edema ([4]; 3 mg/kg oral for 3 days): 44.5%; suppressive action on edema (in words) ([4]; 3 mg/kg): significant suppressive action on edema; median survival time ([5]; 10 mg/kg oral for 28 days from splenocyte injection): 19 days
4 | COC(=O)C[C@@H]1N=C(c2ccc(NC(=O)CCc3ccccc3)cc2)c2c(sc(C)c2C)-n2c(C)nnc21 [Example 311, Methyl (S)-{2,3,9-trimethyl-4-[4-(3-phenylpropionylamino)phenyl]-6H-thieno[3,2-f][1,2,4]triazolo[4,3-a][1,4]diazepin-6-yl}acetate] | 7.60 | have a CD28-dependent T cell growth suppressive action | 85.2% | –
5 | COC(=O)C[C@@H]1N=C(c2ccc(NCc3ccccc3)cc2)c2c(sc(C)c2C)-n2c(C)nnc21 [Example 167, Methyl (S)-{4-(4-benzylaminophenyl)-2,3,9-trimethyl-6H-thieno[3,2-f][1,2,4]triazolo[4,3-a][1,4]diazepin-6-yl}acetate] | 7.54 | have a CD28-dependent T cell growth suppressive action | 61.4% | suppressing rate (%) of EAE score ([3]; 3 mg/kg oral): 62%; suppressing rate (%) of auricular edema ([4]; 3 mg/kg oral for 3 days): 30.1%; suppressive action on edema (in words) ([4]; 3 mg/kg): significant suppressive action on edema; median survival time ([5]; 3 mg/kg oral for 28 days from splenocyte injection): 56 days
6 | COC(=O)C[C@@H]1N=C(c2ccc(-c3ccccc3)cc2)c2c(sc(C)c2C)-n2c(C)nnc21 [Example 61, Methyl (S)-{4-biphenyl-2,3,9-trimethyl-6H-thieno[3,2-f][1,2,4]triazolo[4,3-a][1,4]diazepin-6-yl}acetate] | – | have a CD28-dependent T cell growth suppressive action | – | pIC50 [1]: 7.26
7 | COC(=O)C[C@@H]1N=C(c2ccc(Nc3ccccc3)cc2)c2c(sc(C)c2C)-n2c(C)nnc21 [Example 120, Methyl (S)-{2,3,9-trimethyl-4-(4-phenylaminophenyl)-6H-thieno[3,2-f][1,2,4]triazolo[4,3-a][1,4]diazepin-6-yl}acetate] | 8.96 | have a CD28-dependent T cell growth suppressive action | 53.1% | –
8 | C=CC[C@@H]1/C=C(\C)C[C@H](C)C[C@H](OC)[C@H]2O[C@@](O)(C(=O)C(=O)N3CCCC[C@H]3C(=O)O[C@H](/C(C)=C/[C@@H]3CC[C@@H](O)[C@H](OC)C3)[C@H](C)[C@@H](O)CC1=O)[C@H](C)C[C@@H]2OC [Tacrolimus, tacrolimus, reference compound] | < 6.00 | – | – | inhibition of T cell growth at 1 μM (in words) ([1]; 1 μM, calcineurin inhibitor): hardly inhibits the growth even at 1 μM
